Experimental data: article PMC9065348 (Frontiers in Pharmacology, 2022)
Like-named read-outs stand apart in the source and are kept apart here. Values belong to the molecule of their own block, whether it stands above or below them.

Assays:
[1] = system: CYP3A4; parameters: method as in Li et al. (2012); settings: Rat hepatic microsomes; ref Li et al. (2012); cited from earlier work
[2] = Pharmacokinetics of LOS and EXP3174 in non-hypertensive Wistar rats (LC-MS); assay type: in vivo; settings: rat, serum, po; Wistar rats without L-NAME; LOS 10 mg/kg/d ig alone (BLANK + LOS group)
Description: All groups were treated for 2 weeks and the blood collection time and methods of serum management were the same as those mentioned above. The LOS and EXP3174 in rat serum were quantitatively determined by a validated LC-MS method. The LC-MS system contained a Q/Exactive Quadrupole/Electrostatic Field Track Well High Resolution Mass Spectrometer (Thermo Fisher Scientific, Waltham, MA, United States) and a Dionex Ultimate 3,000 High-pressure liquid chromatography (Dionex, Subsidiary, CA, United States) system equipped with an electro-spray ionization source. […] The mobile phase included 0.1% formic acid aqueous solution (C) and acetonitrile (D) at a flow rate of 0.3 ml/min. The proportion of phase B in the mobile phase was adjusted from 40 to 5% at 0–2 min, 5% at 2–4 min, 40% at 4–5 min. The parameters of mass spectrometry for each analyte were shown in Supplementary Figure S1 . The collected data were analyzed through Xcalibur 4.1 software. The serum drug concentration data in each sample were obtained by calculation. The pharmacokinetic parameters corresponding to each rat were calculated using the “non-compartmental model” of the “PK solution 2.0TM (Summit Research Services, United States)” pharmacokinetic software. The half-life (t 1/2 ), peak drug concentration (C max), peak time (T max), the area under the plasma concentration-time curve (AUC) from time zero to the time of the last measurable plasma concentration (AUC 0-t ), AUC from time zero to infinity (AUC 0-∞ ), mean residence time (MRT), clearance (CL), apparent volume of distribution (V d ), and relative bioavailability (Frel) were calculated.

[3] = parameters: method as in Sica et al., 2005; Burnier and Wuerzner, 2011; settings: ref Sica et al., 2005; Burnier and Wuerzner, 2011; cited from earlier work
[4] = Pharmacokinetics of LOS and EXP3174 in the hypertension rat model (LC-MS); assay type: in vivo, Wistar rats; settings: hypertensive rats (L-NAME); for AUC(0-inf) / AUC(0-t) / Cmax / MRT / Tmax / half-life: Wistar, rat, plasma, po, 10 mg/kg/day
Description: All samples were centrifuged at 3,000 rpm for 10 min, and the upper plasma was collected for Liquid Chromatography Mass Spectrometry (LC-MS) analysis. The LOS and EXP3174 in rat serum were quantitatively determined by a validated LC-MS method. The LC-MS system contained a Q/Exactive Quadrupole/Electrostatic Field Track Well High Resolution Mass Spectrometer (Thermo Fisher Scientific, Waltham, MA, United States) and a Dionex Ultimate 3,000 High-pressure liquid chromatography (Dionex, Subsidiary, CA, United States) system equipped with an electro-spray ionization source. […] The mobile phase included 0.1% formic acid aqueous solution (C) and acetonitrile (D) at a flow rate of 0.3 ml/min. The proportion of phase B in the mobile phase was adjusted from 40 to 5% at 0-2 min, 5% at 2-4 min, 40% at 4-5 min. The parameters of mass spectrometry for each analyte were shown in Supplementary Figure S1 . The collected data were analyzed through Xcalibur 4.1 software. The serum drug concentration data in each sample were obtained by calculation. The pharmacokinetic parameters corresponding to each rat were calculated using the “non-compartmental model” of the “PK solution 2.0TM (Summit Research Services, United States)” pharmacokinetic software. The half-life (t 1/2 ), peak drug concentration (C max), peak time (T max), the area under the plasma concentration-time curve (AUC) from time zero to the time of the last measurable plasma concentration (AUC 0-t ), AUC from time zero to infinity (AUC 0-∞ ), mean residence time (MRT), clearance (CL), apparent volume of distribution (V d ), and relative bioavailability (Frel) were calculated.

[5] = system: P-gp; settings: Sprague-Dawley rats; ref Qin et al. (2013); cited from earlier work
[6] = system: P-gp; parameters: method as in Wan et al. (2010); settings: HepG2; ref Wan et al. (2010); cited from earlier work
[7] = target: CYP3A4 (Homo sapiens, UniProt P08684); parameters: method as in Wan et al. (2010); settings: HepG2; ref Wan et al. (2010); cited from earlier work
Sequence of CYP3A4 (Homo sapiens, UniProt P08684) (P08684 whole entry): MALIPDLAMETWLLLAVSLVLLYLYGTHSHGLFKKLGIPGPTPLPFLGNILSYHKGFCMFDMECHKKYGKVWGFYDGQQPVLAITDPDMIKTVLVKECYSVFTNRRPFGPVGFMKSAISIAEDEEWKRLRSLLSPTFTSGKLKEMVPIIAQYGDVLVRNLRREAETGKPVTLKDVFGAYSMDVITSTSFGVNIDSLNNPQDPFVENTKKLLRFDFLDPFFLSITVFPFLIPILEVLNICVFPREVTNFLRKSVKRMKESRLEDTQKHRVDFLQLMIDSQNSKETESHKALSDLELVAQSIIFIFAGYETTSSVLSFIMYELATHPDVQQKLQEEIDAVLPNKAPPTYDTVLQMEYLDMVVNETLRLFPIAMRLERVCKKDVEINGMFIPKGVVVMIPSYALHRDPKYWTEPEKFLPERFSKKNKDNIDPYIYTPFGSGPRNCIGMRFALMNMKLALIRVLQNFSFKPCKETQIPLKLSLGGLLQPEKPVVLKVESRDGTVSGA

[8] = system: CYP3A4; settings: Sprague-Dawley rats; ref Qin et al. (2013); cited from earlier work
[9] = LOS 10 mg/kg/d ig + SMI 2 ml/kg/d tail vein (SMI-L+LOS group)
[10] = LOS 10 mg/kg/d ig + SMI 4 ml/kg/d tail vein (SMI-M+LOS group)
[11] = LOS 10 mg/kg/d ig + SMI 6 ml/kg/d tail vein (SMI-H+LOS group)
[12] = LOS 10 mg/kg/d ig alone (LOS group)

Structure (SMILES): COc1cc2c(c(OC)c1OC)-c1c(cc(OC)c(OC)c1OC)C[C@H](C)[C@H](C)C2 [Schisandrin A]
Effects on CYP3A4 [1]: Inhibition

AUC(0-inf) [2]: 1170 ng·h/mL
AUC(0-t) [2]: 1020 ng·h/mL
Cmax [2]: 115 ± 12.1 ng/mL
MRT [2]: 9.77 ± 0.26 h
Tmax [2]: 5.33 ± 1.03 h
half-life [2]: 6.5 ± 1.52 h
AUC(0-inf) [4, 9]: 1280 ng·h/mL
AUC(0-t) [4, 9]: 1180 ng·h/mL
Cmax [4, 9]: 133 ± 42.8 ng/mL
MRT [4, 9]: 9.5 ± 1.8 h
Tmax [4, 9]: 4.8 ± 1.1 h
half-life [4, 9]: 6.67 ± 1.34 h
AUC(0-inf) [4, 10]: 1500 ng·h/mL
AUC(0-t) [4, 10]: 1380 ng·h/mL
Cmax [4, 10]: 123 ± 44.6 ng/mL
MRT [4, 10]: 11.4 ± 1.62 h
Tmax [4, 10]: 5.33 ± 1.03 h
half-life [4, 10]: 6.59 ± 1.44 h
AUC(0-inf) [4, 11]: 1380 ng·h/mL
Cmax [4, 11]: 81.2 ± 8.14 ng/mL
MRT [4, 11]: 13.3 ± 2.66 h
Tmax [4, 11]: 6 ± 1.26 h
half-life [4, 11]: 7.31 ± 1.62 h
AUC(0-inf) [4, 12]: 1300 ng·h/mL
AUC(0-t) [4, 12]: 1160 ng·h/mL
Cmax [4, 12]: 119 ± 36.4 ng/mL
MRT [4, 12]: 11.2 ± 2.34 h
Tmax [4, 12]: 4.33 ± 0.82 h
half-life [4, 12]: 6.76 ± 1.45 h
CL [4, 9]: 23,408.16 ± 11,602.26 ml/h/kg
Vd [4, 9]: 226,676.52 ± 129,635.61 ml/kg
CL [4, 10]: 17,618.36 ± 4346.02 ml/h/kg
Vd [4, 10]: 159,469.35 ± 65,037.84 ml/kg
CL [4, 11]: 18,577.68 ± 3,249.85 ml/h/kg
Vd [4, 11]: 188,473.60 ± 36,260.16 ml/kg
CL [4, 12]: 19,842.49 ± 3,602.55 ml/h/kg
Vd [4, 12]: 175,713.60 ± 57,295.84 ml/kg
Structure (SMILES): CCCCc1nc(Cl)c(C(=O)O)n1Cc1ccc(-c2ccccc2-c2nn[nH]n2)cc1 [EXP3174, losartan carboxylic acid]
antihypertensive potency relative to losartan [3]: 10–40 times

Structure (SMILES): COc1cc2c(c(OC)c1OC)-c1c(cc(OC)c(OC)c1OC)C[C@](C)(O)[C@@H](C)C2 [schisandrol A]
Effects on P-Gp [5]: Inhibition
Effects on P-Gp [6]: Inhibition
Effects on CYP3A4 [7]: Inhibition
Effects on CYP3A4 [8]: Inhibition
